Measured values as given in patent US20250041380A1, “R[…] FOR SARS-COV2 DISEASE” (priority 2021, published 2025).
Where two headings read alike, the source gives them in different places.

Tests used:
Kidney cells (HEK-293) = test: cells; type: cell-based; conditions: Spike S1 Protein (100 ng/ml); for inhibition at 0.1 µM / inhibition at 1 µM / inhibition at 10 µM / inhibition at 20 µM: Homo sapiens, HEK293
Bladder cells (T24) = test: tissue or blood; type: cell-based; conditions: Spike S1 Protein (5 μg/ml)
Bone cells (MG-63) = test: cells; type: cell-based; conditions: Spike S1 Protein (10 μg/ml); for inhibition at 0.1 µM / inhibition at 1 µM / inhibition at 10 µM / inhibition at 20 µM: Homo sapiens, MG-63
[1] = tested on: Endothelial cells (EA.hy926); test: cells; type: cell-based; conditions: Spike S1 Protein (1 μg/ml); for inhibition at 0.1 µM / inhibition at 1 µM / inhibition at 10 µM / inhibition at 20 µM: Homo sapiens, EA.hy 926
[2] = tested on: pancreatic cells (PANC-1); test: cells; type: cell-based; conditions: Spike S1 Protein (20 μg/ml)+
Colon cells (HT-29) = test: cells; type: cell-based; conditions: Spike S1 Protein (1 μg/ml); for inhibition at 0.1 µM / inhibition at 1 µM / inhibition at 10 µM / inhibition at 20 µM: Homo sapiens, HT-29
Lung (A549) cells = test: in vitro; type: cell-based, Human; conditions: 48 h
Experimental: (§1) A549 cells were plated in DMEM+10% FBS at a density of 10,000 cells/well in 96-well culture plates and incubated at 37° C. for 24 h. THP-1 cells were plated in RPMI+10% FBS at a density of 10,000 cells/well in 96-well culture plates and incubated at 37° C. for 24 h. Cells were sera-starved for 24 h. […] Untreated cells were used as control. Cells treated with dexamethasone and hydroxychloroquine were included as positive control. After treatment, cells were incubated in a 5% CO2 incubator for 48 h.

liver cells (HepG2) = test: cells; type: cell-based; conditions: Spike S1 Protein (20 μg/ml)
Cardiac cells (H9C2) = test: cells; type: cell-based; conditions: Spike S1 Protein (5 μg/ml); for inhibition at 0.1 µM / inhibition at 1 µM / inhibition at 10 µM / inhibition at 20 µM: Rattus norvegicus, H9c2
Immune (THP-1) cells = test: in vitro; type: cell-based, Human; conditions: 48 h
Experimental: as §1

[3] = 0.1 μM, read-out: % Inhibition (wrt Control), IL-6
[4] = 0.1 μM, read-out: % Inhibition (wrt Control), IL-8
[5] = 1 μM, read-out: % Inhibition (wrt Control), IL-6
[6] = 1 μM, read-out: % Inhibition (wrt Control), IL-8
[7] = 10 μM, read-out: % Inhibition (wrt Control), IL-6
[8] = 10 μM, read-out: % Inhibition (wrt Control), IL-8
[9] = 20 μM, read-out: % Inhibition (wrt Control), IL-6
[10] = 20 μM, read-out: % Inhibition (wrt Control), IL-8
[11] = 0.1 μM, read-out: % Inhibition (IL-6)
[12] = 0.1 μM, read-out: % Inhibition (IL-8)
[13] = 1 μM, read-out: % Inhibition (IL-6)
[14] = 1 μM, read-out: % Inhibition (IL-8)
[15] = 10 μM, read-out: % Inhibition (IL-6)
[16] = 10 μM, read-out: % Inhibition (IL-8)
[17] = 20 μM, read-out: % Inhibition (IL-6)
[18] = 20 μM, read-out: % Inhibition (IL-8)

## C[C@@H]1C[C@H]2[C@@H]3CCC4=CC(=O)C=C[C@]4(C)[C@@]3(F)[C@@H](O)C[C@]2(C)[C@@]1(O)C(=O)CO [Dexamethasone]
Kidney cells (HEK-293); 0.1 μM
  Con. of IL-8: 447.3 pg/mL
  Conc. of IL-6: 64.5 pg/mL
Kidney cells (HEK-293); 1 μM
  Con. of IL-8: 453.6 pg/mL
  Conc. of IL-6: 65.6 pg/mL
Kidney cells (HEK-293); 10 μM
  Con. of IL-8: 551.8 pg/mL
  Conc. of IL-6: 79.6 pg/mL
Kidney cells (HEK-293); 20 μM
  Con. of IL-8: 292.7 pg/mL
  Conc. of IL-6: 42.6 pg/mL
Kidney cells (HEK-293); [3]
  inhibition at 0.1 µM: 75.2%
Kidney cells (HEK-293); [4]
  inhibition at 0.1 µM: 76.6%
Kidney cells (HEK-293); [5]
  inhibition at 1 µM: 74.8%
Kidney cells (HEK-293); [6]
  inhibition at 1 µM: 76.3%
Kidney cells (HEK-293); [7]
  inhibition at 10 µM: 69.4%
Kidney cells (HEK-293); [8]
  inhibition at 10 µM: 71.2%
Kidney cells (HEK-293); [9]
  inhibition at 20 µM: 83.6%
Kidney cells (HEK-293); [10]
  inhibition at 20 µM: 84.7%
Bladder cells (T24); 0.1 μM
  Con. of IL-8: 2458.5
  Conc. of IL-6: 292.2
Bladder cells (T24); [11]
  inhibition at 0.1 µM: 49.4%
Bladder cells (T24); [12]
  inhibition at 0.1 µM: 42.5%
Bladder cells (T24); 1 μM
  Con. of IL-8: 2008.8
  Conc. of IL-6: 348.5
Bladder cells (T24); [13]
  inhibition at 1 µM: 39.7%
Bladder cells (T24); [14]
  inhibition at 1 µM: 53%
Bladder cells (T24); 10 μM
  Con. of IL-8: 2198.1
  Conc. of IL-6: 369.4
Bladder cells (T24); [15]
  inhibition at 10 µM: 36%
Bladder cells (T24); [16]
  inhibition at 10 µM: 48.6%
Bladder cells (T24); 20 μM
  Con. of IL-8: 2386.4
  Conc. of IL-6: 365.4
Bladder cells (T24); [17]
  inhibition at 20 µM: 36.7%
Bladder cells (T24); [18]
  inhibition at 20 µM: 44.2%
Bone cells (MG-63); 0.1 μM
  Con. of IL-8: 407.8 pg/mL
  Conc. of IL-6: 49.3 pg/mL
Bone cells (MG-63); 1 μM
  Con. of IL-8: 355.6 pg/mL
  Conc. of IL-6: 50.9 pg/mL
Bone cells (MG-63); 10 μM
  Con. of IL-8: 400.6 pg/mL
  Conc. of IL-6: 46.2 pg/mL
Bone cells (MG-63); 20 μM
  Con. of IL-8: 427.8 pg/mL
  Conc. of IL-6: 52.0 pg/mL
Bone cells (MG-63); [3]
  inhibition at 0.1 µM: 69.2%
Bone cells (MG-63); [4]
  inhibition at 0.1 µM: 42.4%
Bone cells (MG-63); [5]
  inhibition at 1 µM: 68.2%
Bone cells (MG-63); [6]
  inhibition at 1 µM: 49.8%
Bone cells (MG-63); [7]
  inhibition at 10 µM: 71.1%
Bone cells (MG-63); [8]
  inhibition at 10 µM: 43.4%
Bone cells (MG-63); [9]
  inhibition at 20 µM: 67.5%
Bone cells (MG-63); [10]
  inhibition at 20 µM: 39.6%
[1]; 0.1 μM
  Con. of IL-8: 1208.6 pg/mL
[1]; 1 μM
  Con. of IL-8: 1250.3 pg/mL
  Conc. of IL-6: 42.9 pg/mL
[1]; 10 μM
  Con. of IL-8: 1633.7 pg/mL
  Conc. of IL-6: 53.9 pg/mL
[1]; 20 μM
  Con. of IL-8: 1766.1 pg/mL
  Conc. of IL-6: 72.9 pg/mL
[1]; 0.1 μM, read-out: % Inhibition (wrt, IL-6)
  inhibition at 0.1 µM: 85.7%
[1]; 0.1 μM, read-out: % Inhibition (wrt, IL-8)
  inhibition at 0.1 µM: 25.2%
[1]; 1 μM, read-out: % Inhibition (wrt, IL-6)
  inhibition at 1 µM: 87.3%
[1]; 1 μM, read-out: % Inhibition (wrt, IL-8)
  inhibition at 1 µM: 22.6%
[1]; 10 μM, read-out: % Inhibition (wrt, IL-6)
  inhibition at 10 µM: 84%
[1]; 10 μM, read-out: % Inhibition (wrt, IL-8)
  inhibition at 10 µM: 0%
[1]; 20 μM, read-out: % Inhibition (wrt, IL-6)
  inhibition at 20 µM: 78.4%
[1]; 20 μM, read-out: % Inhibition (wrt, IL-8)
  inhibition at 20 µM: 0%
[2]; 0.1 μM
  Conc. of IL-8: 330.5 pg/mL
[2]; 1 μM
  Conc. of IL-8: 296.2 pg/mL
[2]; 10 μM
  Conc. of IL-8: 342.8 pg/mL
[2]; 20 μM
  Conc. of IL-8: 255.7 pg/mL
[2]; Homo sapiens, PANC-1, 0.1 μM, read-out: % Inhibition (wrt Control ), IL-8
  inhibition at 0.1 µM: 55.7%
[2]; Homo sapiens, PANC-1, 1 μM, read-out: % Inhibition (wrt Control ), IL-8
  inhibition at 1 µM: 60.3%
[2]; Homo sapiens, PANC-1, 10 μM, read-out: % Inhibition (wrt Control ), IL-8
  inhibition at 10 µM: 54.1%
[2]; Homo sapiens, PANC-1, 20 μM, read-out: % Inhibition (wrt Control ), IL-8
  inhibition at 20 µM: 65.7%
Colon cells (HT-29); 0.1 μM
  Con. of IL-8: 44.1 pg/mL
  Conc. of IL-6: 106.0 pg/mL
Colon cells (HT-29); 1 μM
  Con. of IL-8: 18.2 pg/mL
  Conc. of IL-6: 89.1 pg/mL
Colon cells (HT-29); 10 μM
  Con. of IL-8: 53.5 pg/mL
  Conc. of IL-6: 73.6 pg/mL
Colon cells (HT-29); 20 μM
  Con. of IL-8: 66.4 pg/mL
  Conc. of IL-6: 109.0 pg/mL
Colon cells (HT-29); [3]
  inhibition at 0.1 µM: 55%
Colon cells (HT-29); [4]
  inhibition at 0.1 µM: 93.4%
Colon cells (HT-29); [5]
  inhibition at 1 µM: 62.2%
Colon cells (HT-29); [6]
  inhibition at 1 µM: 97.3%
Colon cells (HT-29); [7]
  inhibition at 10 µM: 68.8%
Colon cells (HT-29); [8]
  inhibition at 10 µM: 92%
Colon cells (HT-29); [9]
  inhibition at 20 µM: 53.8%
Colon cells (HT-29); [10]
  inhibition at 20 µM: 90.1%
Lung (A549) cells; 0.1 μM
  % Viability: 122.7%
Lung (A549) cells; 1 μM
  % Viability: 76.3%
Lung (A549) cells; 5 μM
  % Viability: 90.0%
Lung (A549) cells; 10 μM
  % Viability: 82.6%
Lung (A549) cells; 20 μM
  % Viability: 69.5%
Liver cells (HepG2); 0.1 μM
  Conc. of IL-8: 91.4 pg/mL
Liver cells (HepG2); 1 μM
  Conc. of IL-8: 21.5 pg/mL
Liver cells (HepG2); 10 μM
  Conc. of IL-8: 64.4 pg/mL
Liver cells (HepG2); 20 μM
  Conc. of IL-8: 23.9 pg/mL
Liver cells (HepG2); Homo sapiens, HepG2, 0.1 μM, read-out: % Inhibition (wrt Control ), IL-8
  inhibition at 0.1 µM: 81.7%
Liver cells (HepG2); Homo sapiens, HepG2, 1 μM, read-out: % Inhibition (wrt Control ), IL-8
  inhibition at 1 µM: 95.7%
Liver cells (HepG2); Homo sapiens, HepG2, 10 μM, read-out: % Inhibition (wrt Control ), IL-8
  inhibition at 10 µM: 87.1%
Liver cells (HepG2); Homo sapiens, HepG2, 20 μM, read-out: % Inhibition (wrt Control ), IL-8
  inhibition at 20 µM: 95.2%
Cardiac cells (H9C2); 0.1 μM
  Con. of IL-8: 31.2
  Conc. of IL-6: 50.8
Cardiac cells (H9C2); 1 μM
  Con. of IL-8: 18.6
  Conc. of IL-6: 44.5
Cardiac cells (H9C2); 10 μM
  Con. of IL-8: 29.1
  Conc. of IL-6: 53.3
Cardiac cells (H9C2); 20 μM
  Con. of IL-8: 48.7
  Conc. of IL-6: 51.8
Cardiac cells (H9C2); [11]
  inhibition at 0.1 µM: 90%
Cardiac cells (H9C2); [12]
  inhibition at 0.1 µM: 97.8%
Cardiac cells (H9C2); [13]
  inhibition at 1 µM: 91.2%
Cardiac cells (H9C2); [14]
  inhibition at 1 µM: 98.7%
Cardiac cells (H9C2); [15]
  inhibition at 10 µM: 89.5%
Cardiac cells (H9C2); [16]
  inhibition at 10 µM: 98%
Cardiac cells (H9C2); [17]
  inhibition at 20 µM: 89.7%
Cardiac cells (H9C2); [18]
  inhibition at 20 µM: 96.6%
Immune (THP-1) cells; 0.1 μM
  % Viability: 110.0%
Immune (THP-1) cells; 1 μM
  % Viability: 98.2%
Immune (THP-1) cells; 5 μM
  % Viability: 83.1%
Immune (THP-1) cells; 10 μM
  % Viability: 95.6%
Immune (THP-1) cells; 20 μM
  % Viability: 104.3%
